Tests used:
[1] = system: BP-sgSTING tumors; experiment: BP-sgSTING tumor growth and survival in FVB mice; format: in vivo, mouse; conditions: olaparib 50 mg/kg i.p. q.d.
Description: Primary mammary tumor cells for orthotopic injection were resuspended in serum-free DMEM containing 40% matrigel (Corning). 5×10^5 tumor cells in a total volume of 100 μL were injected orthotopically into the thoracic mammary fat pads of 8-week-old female FVB/NJ mice (The Jackson Laboratory). Tumor growth was examined by measuring the greatest longitudinal diameter (length) and the greatest transverse diameter (width) with digital calipers, and tumor volume was calculated by use of the modified ellipsoid formula (0.52×length×width2). Tumors were measured 2-3 times a week. All tumor measurements within single cohorts were performed by the same researcher. Tumor-bearing mice were randomized prior to start of treatment. Drug treatments were started when mean tumor volumes approximated 50-100 mm3. Mice were euthanized by CO2 inhalation when tumor volumes met humane endpoints described in the IACUC (20 mm diameter) protocols or upon severe health deterioration.
Olaparib (MedChem, #HY-10162) was prepared by diluting 100 mg/l mL stocks in DMSO with 10% (2-Hydroxypropyl)-β-cyclodextrin (HPCD, MedChem, #101103) in PBS and administered immediately after drug preparation by intraperitoneal (i.p.) injection at a dose of 50 mg/kg body weight daily. DMXAA (Sigma, #D5817) was reconstituted at 10 mg/mL in 7.5% NaHCO3(Gibco). […]

[2] = system: ovarian PDXs DF86, DF101, DF118 and DF149; experiment: p-STAT3 (Y705) in PARPi-resistant ovarian PDX cells; format: cell-based, human; conditions: 5 μM olaparib for 24 hours; FIG. 25B
Description: UWB1.289 and UWB1.289+BRCA1 were purchased from ATCC and cultured in epithelial complete growth medium (50% ATCC-formulated RPMI-1640 medium, 50% MEGM medium and 3% fetal bovine serum) as described previously (Ding et al., 2018, Cell Rep 25, 2972-2980.e2975). ID8-Brca^+/+ and ID8-Brca^−/− cells were previously generated by CRISPR-Cas9 technology. The ovarian cancer patient-derived tumor xenografts (PDX) were established at Dana-Farber Cancer Institute by intraperitoneally implanting tumor cells that isolated from patients' ascites into irradiated nude mice (Liu et al., 2017; Clinical cancer research: an official journal of the American Association for Cancer Research 23, 1263-1273). The established PDX models were maintained by intraperitoneally transplantation in NOD/SCID IL2Rgnull mice (NSG, The Jackson Laboratory). The ovarian PDX cells could be cultured in the epithelial complete growth medium for about 3 to 4 days for in vitro experiments.
Analysis of p-STAT3 and γ-H2AX (p-HA2X-Ser139) was performed according to a two-step protocol for intracellular phosphorylated signaling proteins (Thermo Fisher). Briefly, cells were incubated with LIVE/DEAD Fixable Aqua Dead Cell Stain for 30 min. […]

Row | Structure (SMILES) | BP-sgSTING tumor growth ([1]; DMXAA 10 mg/kg i.p. weekly, FIG. 11H) | BP-sgSTING tumor growth ([1]; DMXAA 10 mg/kg intratumoral one dose per week, FIG. 12B) | PDX cells with increased phosphorylation level STAT3 [2]
1 | Cc1ccc2c(=O)c3cccc(CC(=O)O)c3oc2c1C [DMXAA, 5,6-dimethyl-xanthenone-4-acetic acid] | no significant impact | completely refractory | 
2 | O=C(c1cc(Cc2n[nH]c(=O)c3ccccc23)ccc1F)N1CCN(C(=O)C2CC2)CC1 [olaparib] |  |  | 3 out of 4
